From US20240043476A1, “ANTI-TUMOR PEPTIDE AND USE THEREOF” (National University Corporation Hokkaido University, priority 2020, published 2024)
Values belong to the substance of their own block, whether it stands above or below them.

Legend:
[1] = system: human pancreatic cancer cell line BxPC3; test: Inhibition of proliferation of BxPC3 cells; assay type: cell-based; settings: BxPC3, same manner as Example 2
[2] = system: human melanoma cell line A375; test: Inhibition of proliferation of A375 cells; assay type: cell-based; settings: A375, same manner as Example 2
Experimental: Human prostate cancer cell line DU145 was cultured in DMEM containing 10% fetal cattle serum (FCS) at 37° C. and 5% CO2 with passaging. DU145 cells were seeded into 96-well plates at 5000 cells/well, then cultured at 37° C. for 24 hours, and then further cultured for 48 hours in 10% FCS-containing DMEM that contains each of the synthesized peptides of Example 1 at a final concentration of 1 μM, 10 μM, 50 μM or 100 μM. The medium was discarded after culturing, and then 25 μL of 50-fold diluted solution of CellTiter Glo Reagent (Promega) (diluted with PBS (−) containing 0.1% NP-40) was added to each well. Next, the resulting solution was shaken at room temperature for 10 minutes, and then luminescence level was measured with a plate reader (Infinite M200, Tecan). A relative luminescence level of each synthetic peptide was calculated when the average luminescence level measured for control cells cultured in 10% FCS-containing DMEM without any synthetic peptide was set to 100, and was used as an index of cell proliferation. […]

[3] = system: human breast cancer cell line T47D; test: Inhibition of proliferation of T47D cells; assay type: cell-based; settings: cultured 96 hours with peptide
[4] = system: DU145 cells; test: Antitumor effect in DU145 tumor-bearing model; assay type: in vivo, BALB/c nude mice; settings: 2 mg/body intratumoral
Experimental: DU145 cells (5.0×10^6 cells) were injected subcutaneously into right flank of BALB/c nude mice (female, 4 weeks old). On days 14, 17 and 20 after implantation, solvent (5% DMSO, control) or the synthetic peptide #2-D-1-4 (2 mg/body) was intratumorally administered. Tumor diameters were measured with calipers every 3 days starting on day 14 after implantation, and tumor volumes (longer diameter×shorter diameter×shorter diameter/2) were calculated. The mice were euthanized on day 32 after implantation, then tumor mass were collected and their weights were measured.

[5] = target: T1, EGFR/STAP-2 interaction (EGFR-HA and GST-STAP-2) (Homo sapiens, UniProt P00533, C187G/DEL142-186); test: GST pull-down and immunoblot of EGFR/STAP-2 interaction; assay type: binding; settings: HEK293T lysate, peptide 1 μM or 50 μM, 4° C. 1 hour
T1 construct: expressed in transfected cells; host or cells: HEK293T

[6] = system: human lung cancer cell line A549; test: Inhibition of proliferation of A549 cells; assay type: cell-based; settings: A549, same manner as Example 2
[7] = system: human glioma cell line U251; test: Inhibition of proliferation of U251 cells; assay type: cell-based; settings: U251, same manner as Example 2
[8] = system: human liver cancer cell line Hep3B; test: Inhibition of proliferation of Hep3B cells; assay type: cell-based; settings: same manner as Example 2
[9] = system: Cyclin D1 (Ccnd1); test: Real-time PCR of Cyclin D1 gene expression in DU145 cells; assay type: cell-based, human; settings: peptide 10 μM, 15 and 30 minutes
Experimental: (§1) DU145 cells, cultured in DMEM containing 10% fetal cattle serum (FCS) at 37° C. and 5% CO2 with passage, were seeded into 6-well plates at 5.0×10^5 cells/well, and then cultured at 37° C. for 24 hours. The cells were incubated for 2 hours in serum-free DMEM. Then, the synthetic peptide #2-D-1-4 (final concentration 10 μM) was added, and cells were collected 15 minutes later and 30 minutes later. Cells without addition of any synthetic peptide were prepared in the same way.
(§2) Total RNA was extracted from the cells with use of TRIzol (Thermo Fisher Scientific). cDNA was synthesized from the total RNA with use of ReverTra Ace (TOYOBO) and random hexamer primers. Real-time PCR was carried out with the following primer sets and MX3000P (Agilent Technologies, Inc.) to measure the relative gene expression levels of Cyclin D1 (Ccnd1), which is associated with cell proliferation, and Survivin, which is associated with cancer cell survival.

[10] = system: Survivin; test: Real-time PCR of Survivin gene expression in DU145 cells; assay type: cell-based, human; settings: peptide 10 μM, 15 and 30 minutes
Experimental: as §1, §2

[11] = system: human cervical cancer cell line HeLa; test: Inhibition of proliferation of HeLa cells; assay type: cell-based; settings: same manner as Example 2
[12] = system: human prostate cancer cell line DU145; test: Inhibition of proliferation of prostate cancer cell line DU145 (CellTiter Glo luminescence); assay type: cell-based; settings: DU145 cells; for inhibitory activity against cell proliferation: cell-penetrating peptide substituted or removed, same way as Example 2; for cell proliferation (without synthetic peptide set to 100): final concentration 30 μM
Experimental: Human prostate cancer cell line DU145 was cultured in DMEM containing 10% fetal cattle serum (FCS) at 37° C. and 5% CO2 with passaging. DU145 cells were seeded into 96-well plates at 5000 cells/well, then cultured at 37° C. for 24 hours, and then further cultured for 48 hours in 10% FCS-containing DMEM that contains each of the synthesized peptides of Example 1 at a final concentration of 1 μM, 10 μM, 50 μM or 100 μM. The medium was discarded after culturing, and then 25 μL of 50-fold diluted solution of CellTiter Glo Reagent (Promega) (diluted with PBS (−) containing 0.1% NP-40) was added to each well. Next, the resulting solution was shaken at room temperature for 10 minutes, and then luminescence level was measured with a plate reader (Infinite M200, Tecan). A relative luminescence level of each synthetic peptide was calculated when the average luminescence level measured for control cells cultured in 10% FCS-containing DMEM without any synthetic peptide was set to 100, and was used as an index of cell proliferation.
The peptides listed in Table 2 below were designed and evaluated for their inhibitory activities against proliferation of DU145 cells in the same way as in Example 2. Each of the peptides 4T-2-D-1-4, 4H-2-D-1-4 and 4F-2-D-1-4 is a peptide in which the octaarginine sequence of the peptide 42-D-1-4 is substituted with an amino acid sequence of another cell-penetrating peptide, and each has, from the N-terminal side, an amino acid sequence of TAT peptide, HTLV-II-Rex or FHV coat (35-49), a linker sequence of one Gly residue, and an amino acid sequence corresponding to G45-Y51 of the PH domain. The peptides #R8(−)-2-D-1, #R8(−)-2-D-1-4 and #R8(−)-6-A-2 are peptides with the octaarginine sequence and the linker sequence removed from the peptides #2-D-1, #2-D-1-4 and #6-A-2, respectively.
The peptides listed in Table 3 below were designed and evaluated for their inhibitory activities against proliferation of DU145 cells, in the same way as in Example 2 except that the final concentrations of the synthetic peptides were set to 3 μM, 10 μM and 30 μM. The peptides #2-D-1-4-1A to #2-D-1-4-7A are peptides in which GLTIYFY (SEQ ID NO: 36) of peptide #2-D-1-4 was substituted with Ala one by one from the N-terminal side.

- complex between EGFR-HA and GST-STAP-2 in pull-down fraction [5]: not detected
Substance: RRRRRRRRGG GLTIYFY (RRRRRRRRGGGLTIYFY) [#2-D-1-4]
- activity to inhibit proliferation [1]: exhibited the activity to inhibit proliferation
- activity to inhibit proliferation [2]: exhibited the activity to inhibit proliferation
- activity to inhibit proliferation [3]: exhibited the activity to inhibit proliferation
- final weight of the tumor mass compared to the control ([4]; days 14, 17 and 20, day 32 after implantation): significant reduction
- tumor volume compared to the control ([4]; days 14, 17 and 20 after implantation): inhibition of increase in tumor volume
- activity to inhibit proliferation [6]: exhibited the activity to inhibit proliferation
- activity to inhibit proliferation [7]: exhibited the activity to inhibit proliferation
- activity to inhibit proliferation [8]: exhibited the activity to inhibit proliferation
- gene expression level of Ccnd1 [9]: reduced
- gene expression level of Survivin [10]: reduced
- activity to inhibit proliferation [11]: exhibited the activity to inhibit proliferation

Substance: GLTIYFY [#R8(−)-2-D-1-4]
- inhibitory activity against cell proliferation [12]: none

Substance: TRRQRTRRARRNRGGLTIYFY [#H-2-D-1-4]
- inhibitory activity against cell proliferation [12]: the same extent of inhibitory activity against cell proliferation as that of the peptide #2-D-1-4

Substance: VVELRVP [#R8(−)-6-A-2]
- inhibitory activity against cell proliferation [12]: none

Substance: RRRRNRTRRNRRRVRGGLTIYFY [#F-2-D-1-4]
- inhibitory activity against cell proliferation [12]: the same extent of inhibitory activity against cell proliferation as that of the peptide #2-D-1-4

Substance: RRRRRRRRGG GLAIYFY (RRRRRRRRGGGLAIYFY) [#2-D-1-4-3A]
- cell proliferation (without synthetic peptide set to 100) [12]: approximately 50%

Substance: QGLTIYFYN [#R8(−)-2-D-1]
- inhibitory activity against cell proliferation [12]: none

Substance: RRRRRRRRGG GLTIYAY (RRRRRRRRGGGLTIYAY) [#2-D-1-4-6A]
- cell proliferation (without synthetic peptide set to 100) [12]: approximately 50%

Substance: RRRRRRRRGG GATIYFY (RRRRRRRRGGGATIYFY) [#2-D-1-4-2A]
- cell proliferation (without synthetic peptide set to 100) [12]: approximately 50%

Substance: GRKKRRQRRRPPQGGLTIYFY [#T-2-D-1-4]
- inhibitory activity against cell proliferation [12]: the same extent of inhibitory activity against cell proliferation as that of the peptide #2-D-1-4
